Data set [1] has as its target T1, BsCM_2 (chorismate mutase type II N-terminal domain of DAHPS) (Bacillus subtilis, UniProt P39912). Put plainly: co-crystal structure at […] Å and ITC; also competitive enzyme inhibition (Ki […], IC50 […]). Format: binding. Set-up: gene aroA; N-terminal chorismate mutase-like domain of DAHPS (306 bp fragment), homodimer. The following applies: read-out: Dissociation constant, K D.

Data set [2] deals with T1, BsCM_2 (chorismate mutase type II N-terminal domain of DAHPS). Put plainly: crystal structure at […] Å (citrate from crystallization buffer) and ITC. It counts as binding. The arrangement: gene aroA; N-terminal chorismate mutase-like domain of DAHPS (306 bp fragment), homodimer.
The target is the same in data set [3]. Put plainly: ITC; also Michaelis-Menten kinetics (Km […]). It counts as binding. Set-up: gene aroA; N-terminal chorismate mutase-like domain of DAHPS (306 bp fragment). The following applies: read-out: Dissociation constant, K D.
Data set [4] deals with the molecule itself. Put plainly: crystal structure; BsCM_2 co-crystallised with chlorogenic acid (1.8 Å, P21, two monomers per asymmetric unit) and with citrate from the buffer (1.9 Å, P1, four monomers per asymmetric unit); sitting drop, 1 M ammonium sulphate, 0.1 M potassium sodium tartrate, 0.1 M sodium citrate pH 5.8, 20 °C; dimer interface analysed with PISA.

Counter-ions that a name gives are not always drawn.

As for `O=C(/C=C/c1ccc(O)c(O)c1)O[C@@H]1C[C@](O)(C(=O)O)C[C@@H](O)[C@H]1O` [CGA, chlorogenic acid], the Kd in data set [1] is 480 µM.
For the molecule `O=C(O)CC(O)(CC(=O)O)C(=O)O` [CIT, citrate], the Kd in data set [2] was found to be 600 µM.
For `C=C(O[C@@H]1C=C(C(=O)O)C=C[C@H]1O)C(=O)O` [chorismate], in data set [3], the Kd was found to be 725 µM.

B1: Chorismate mutase type II-like N-terminal domain (AroQ class) of 3-deoxy-D-arabino-heptulosonate-7-phosphate synthase (DAHPS) from Bacillus subtilis (domain or fragment, Bacillus subtilis strain 3256)
chain: MSNTELELLRQKADELNLQILKLINERGNVVKEIGKAKEAQGVNRFDPVRERTMLNNIIENNDGPFENSTIQHIFKEIFKAGLELQEEDH
notes: the forward primer encodes MSNTEL from the start codon, the reverse primer encodes ...QEEDH followed by a stop codon; residues 1-88 are spoken of in the structures; strain 3256 may differ; also called BsCM_2; CM_2 domain; source: E. coli BL21 (DE3), pET28c/BsCM_2, purified (HisTrap Ni-NTA, Superdex 75 SEC)
In general, stoichiometry N refers to a count of units in the complex or per binding partner. B1: the “stoichiometry N” value in data set [4] came to 2.

Source of the values: article PMC5526877, “Structure of Chorismate Mutase-like Domain of DAHPS from Bacillus subtilis Complexed with Novel Inhibitor Reveals Conformational Plasticity of Active Site” (Scientific Reports, 2017).
